The values that follow come from patent publication US4048299A, “Anticaries confectionaries and oral health products” (William Wrigley, Jr. Co., priority 1970, dated 1977).

Molecules are shown by their SMILES. Read-outs that look alike come from different tables or passages of the source.

The subject of test [1] is Streptococcus spp. FA-1. Description: Growth inhibition of oral microorganisms in vitro, pour plates. Format: cell-based. The following applies: Table IX; for Bacterial Population, Experimental: control 2 × 10^8 to 5 × 10^8; for Inhibition (growth): pour plates incubated 48 - 72 hours. The method, then: (§1) (a)Determined on freshly grown pure cultures. Pour plates were incubated

The subject of test [2] is L. casei. The description is as above. Format: cell-based, Lactobacillus casei. The following applies: Table IX; for Bacterial Population, Experimental: control 8 × 10^8 to 1 × 10^9; for Inhibition (growth): pour plates incubated 48 - 72 hours. As for the experimental part:
as §1

For test [3], the system named is Lactobacillus casei and Streptococcus sp. FA-1. Nature of the test: Acid-production inhibition by broth-tube assay, 0.1 percent of compound. Format: cell-based. The following applies: for inhibition at 0.1 %: read-out: Activity, Acid-Production Inhibition%. As for the experimental part:
^(a) Activity was measured by broth-tube assay to determine percent
(§2) acid-production inhibition obtained by Lactobacillus casei and
Streptococcus sp. FA-1 in the presence of 0.1 percent of compound.
^(a) Activity was measured by broth-tube assay to determine percent o
as §2
Streptococcus sp. FA-1 in the presence of 0.1% of compound. Symbols

The test system of test [4] is oral microorganisms. Description: Acid production inhibition in vitro (summary). Format: cell-based. Conditions: in words, summary of tables. As for the experimental part: (§3) Other in vitro evaluations utilized a broth tube analysis of representative anticaries aldehydes incorporated in the vehicles of this invention against cultures of acid producing microorganisms normally present in the mouth. Standard laboratory procedures were utilized throughout to evaluate the acid production inhibition and growth inhibition over the incubation time of up to 24 hours.

Test [5] deals with oral microorganisms. Nature of the test: Growth inhibition in vitro (summary). Format: cell-based. The following applies: in words, summary of tables. The method, then: as §3
The subject of test [6] is Streptococcus sp. GS-5. Nature of the test: Acid production inhibition, broth-tube technique. The format is cell-based. Conditions: Table XI, emulsion with 4 parts Tween 20. As for the experimental part:
(a)2,4-Hexadienal was prepared as an emulsion with 4 parts of Tween 20.

Test [7] has as its system Streptococcus sp. FA-1. Nature of the test: Acid production inhibition, broth-tube technique. Conditions: Table XI, emulsion with 4 parts Tween 20.
Excerpt: (§4) The data was compiled through well-known broth tube analysis techniques.
(a)Measured by broth-tube technique.
Test [8] has as its system Lactobacillus casei. Description: Acid production inhibition, broth-tube technique. Conditions: Table XI, emulsion with 4 parts Tween 20.
Excerpt: as §4
(a)Measured by broth-tube technique.
The mark [9] stands for this setting: Table X, 0.1 percent of compound.

With `CCCC=CC=O` [2-Hexene-1-al], in test [1], the “Bacterial Population, Experimental” value is given as 9 × 10^7 and the “Inhibition (growth)” value is given as “Insignificant”. In addition, in test [2], the “Bacterial Population, Experimental” value is given as 8 × 10^8 and the “Inhibition (growth)” value is “Insignificant”. For the same compound, the inhibition (as a rule, the relative decrease from the control value, in per cent) at 0.1 % in test [3] was in the range of 90 to 98%. Moreover, in test [4], the Acid Production Inhibition entry is reported as “excellent acid production inhibition”. Moreover, the Growth Inhibition entry in test [5] was “little or no growth inhibition”.

As for `CCCCCC=O` [n-Hexaldehyde], the results for the “Bacterial Population, Experimental” value in test [1] and in test [2] were 4 × 10^8 and 1 × 10^9, respectively. Further, the “Inhibition (growth)” value was “Insignificant” in test [1] and “None” in test [2]. Also, in test [3] (setting [9]), the inhibition at 0.1 % was 25 to 74%. Further, the Acid Production Inhibition entry in test [4] was “excellent acid production inhibition”. Also, in test [5], the Growth Inhibition result is “little or no growth inhibition”.

Turning to `CC=CC=CC=O` [2,4-Hexadienal], the “Activity, Acid-Production Inhibition, %” value in test [3] (Table XII, 0.1% of compound) is recorded as “++++ (99 to 100)”. Further, the “Inhibition of Acid Production” value in test [6] (0.01 percent) was 8%; in test [6] (0.025 percent), 35%; in test [6] (0.05 percent), 97%; in test [6] (0.075 percent), 99%; in test [6] (0.10 percent), 100%; in test [7] (0.01 percent) it was 31%. Moreover, the “Inhibition of Acid Production” value came out at 92% in test [7] (0.025 percent); 99% in test [7] (0.05 percent); 99% in test [7] (0.075 percent); 100% in test [7] (0.10 percent); 27% in test [8] (0.01 percent); 43% in test [8] (0.025 percent). Besides, the “Inhibition of Acid Production” value in test [8] (0.05 percent) was 88%; in test [8] (0.075 percent) it was 94%; in test [8] (0.10 percent), 98%. Also, in test [4], the Acid Production Inhibition entry was “excellent acid production inhibition”. Also, the Growth Inhibition result in test [5] was “little or no growth inhibition”.

`CCCCCCC=O` [n-Heptaldehyde]: in test [1], the “Bacterial Population, Experimental” value is reported as 3 × 10^8 and the “Inhibition (growth)” value is “Insignificant”. Besides, in test [2], the “Bacterial Population, Experimental” value was 1 × 10^9 and the “Inhibition (growth)” value is “None”. Besides, the inhibition at 0.1 % in test [3] (setting [9]) was 75 to 89%. The Acid Production Inhibition entry in test [4] is reported as “excellent acid production inhibition”. Besides, the Growth Inhibition result in test [5] is given as “little or no growth inhibition”.
